Test results taken from PubChem BioAssay (NCI).
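GI50: concentration for 50% inhibition of growth. TGI is the concentration that stops growth completely.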

How the values were obtained:
Assay in all cases: inhibition of tumour cell growth, NCI panel, 384-well format
786-0 renal = tested on: 786-0 renal
A498 renal = tested on: A498 renal
A549 NSCLC = tested on: A549 NSCLC
ACHN renal = tested on: ACHN renal
BT-549 breast = tested on: BT-549 breast
CAKI-1 renal = tested on: CAKI-1 renal
CCRF-CEM leukemia = tested on: CCRF-CEM leukemia
COLO 205 colon = tested on: COLO 205 colon
DU-145 prostate = tested on: DU-145 prostate
HCC-2998 colon = tested on: HCC-2998 colon
HCT-116 colon = tested on: HCT-116 colon
HCT-15 colon = tested on: HCT-15 colon
HL-60(TB) leukemia = tested on: HL-60(TB) leukemia
HOP-62 NSCLC = tested on: HOP-62 NSCLC
HOP-92 NSCLC = tested on: HOP-92 NSCLC
HT29 colon = tested on: HT29 colon
IGROV1 ovarian = tested on: IGROV1 ovarian
K-562 leukemia = tested on: K-562 leukemia
KM12 colon = tested on: KM12 colon
LOX IMVI melanoma = tested on: LOX IMVI melanoma
M14 melanoma = tested on: M14 melanoma
MALME-3M melanoma = tested on: MALME-3M melanoma
MCF7 breast = tested on: MCF7 breast
MDA-MB-231 breast = tested on: MDA-MB-231 breast
MDA-MB-435 melanoma = tested on: MDA-MB-435 melanoma
MDA-MB-468 breast = tested on: MDA-MB-468 breast
MOLT-4 leukemia = tested on: MOLT-4 leukemia
NCI-H226 lung = tested on: NCI-H226 lung
NCI-H23 lung = tested on: NCI-H23 lung
NCI-H322M lung = tested on: NCI-H322M lung
NCI-H460 NSCLC = tested on: NCI-H460 NSCLC
NCI-H522 lung = tested on: NCI-H522 lung
NCI/ADR-RES ovarian = tested on: NCI/ADR-RES ovarian
OVCAR-3 ovarian = tested on: OVCAR-3 ovarian
OVCAR-4 ovarian = tested on: OVCAR-4 ovarian
OVCAR-5 ovarian = tested on: OVCAR-5 ovarian
OVCAR-8 ovarian = tested on: OVCAR-8 ovarian
PC-3 prostate = tested on: PC-3 prostate
RPMI-8226 leukemia = tested on: RPMI-8226 leukemia
RXF 393 renal = tested on: RXF 393 renal
SF-268 CNS = tested on: SF-268 CNS
SF-295 CNS = tested on: SF-295 CNS
SF-539 CNS = tested on: SF-539 CNS
SK-MEL-2 melanoma = tested on: SK-MEL-2 melanoma
SK-MEL-28 melanoma = tested on: SK-MEL-28 melanoma
SK-MEL-5 melanoma = tested on: SK-MEL-5 melanoma
SK-OV-3 ovarian = tested on: SK-OV-3 ovarian
SN12C renal = tested on: SN12C renal
SNB-19 CNS = tested on: SNB-19 CNS
SR leukemia = tested on: SR leukemia
SW-620 colon = tested on: SW-620 colon
T-47D breast = tested on: T-47D breast
TK-10 renal = tested on: TK-10 renal
U251 glioblastoma = tested on: U251 glioblastoma
UACC-257 melanoma = tested on: UACC-257 melanoma
UACC-62 melanoma = tested on: UACC-62 melanoma
UO-31 renal = tested on: UO-31 renal

C#Cc1c(F)ccc2cc(O)cc(-c3ncc4c(N5CC6CCC(C5)N6)nc(OC[C@@]56CCCN5C[C@H](F)C6)nc4c3F)c12
GI50 ([…]-0 renal): 12.4 µM | TGI (786-0 renal): 24.9 µM | GI50 (A498 renal): 10.5 µM | TGI (A498 renal): 22.4 µM | GI50 (A549 NSCLC): 5.54 µM | TGI (A549 NSCLC): 18.5 µM | GI50 (ACHN renal): 16.1 µM | TGI (ACHN renal): 29.7 µM | GI50 (BT-549 breast): 1.86 µM | TGI (BT-549 breast): 3.47 µM | GI50 (CAKI-1 renal): 10.9 µM | TGI (CAKI-1 renal): 22.9 µM | GI50 (CCRF-CEM leukemia): 1.25 µM | TGI (CCRF-CEM leukemia): 2.51 µM | GI50 (COLO 205 colon): 2.02 µM | TGI (COLO 205 colon): 3.94 µM | GI50 (DU-145 prostate): 13.7 µM | TGI (DU-145 prostate): 26.6 µM | GI50 (HCC-2998 colon): 0.303 µM | TGI (HCC-2998 colon): 1.67 µM | GI50 (HCT-116 colon): 1.37 µM | TGI (HCT-116 colon): 2.9 µM | GI50 (HCT-15 colon): 14.6 µM | TGI (HCT-15 colon): 27.8 µM | GI50 (HL-60(TB) leukemia): 1.87 µM | TGI (HL-60(TB) leukemia): 3.28 µM | GI50 (HOP-62 NSCLC): 0.853 µM | TGI (HOP-62 NSCLC): 10.2 µM | GI50 (HOP-92 NSCLC): 2.03 µM | TGI (HOP-92 NSCLC): 4.02 µM | GI50 (HT29 colon): 2.02 µM | TGI (HT29 colon): 4.05 µM | GI50 (IGROV1 ovarian): 12.4 µM | TGI (IGROV1 ovarian): 24.9 µM | GI50 (K-562 leukemia): 3.58 µM | TGI (K-562 leukemia): 9.9 µM | GI50 (KM12 colon): 2.07 µM | TGI (KM12 colon): 5.31 µM | GI50 (LOX IMVI melanoma): 2.23 µM | TGI (LOX IMVI melanoma): 3.7 µM | GI50 (M14 melanoma): 1.78 µM | TGI (M14 melanoma): 3.27 µM | GI50 (MALME-3M melanoma): 1.99 µM | TGI (MALME-3M melanoma): 3.43 µM | GI50 (MCF7 breast): 2.36 µM | TGI (MCF7 breast): 5.28 µM | GI50 (MDA-MB-231 breast): 1.94 µM | TGI (MDA-MB-231 breast): 4 µM | GI50 (MDA-MB-435 melanoma): 1.93 µM | TGI (MDA-MB-435 melanoma): 3.4 µM | GI50 (MDA-MB-468 breast): 2.08 µM | TGI (MDA-MB-468 breast): 3.55 µM | GI50 (MOLT-4 leukemia): 1.9 µM | TGI (MOLT-4 leukemia): 3.32 µM | GI50 (NCI-H226 lung): 10.7 µM | TGI (NCI-H226 lung): 22.6 µM | GI50 (NCI-H23 lung): 0.568 µM | TGI (NCI-H23 lung): 3.51 µM | GI50 (NCI-H322M lung): 6.12 µM | TGI (NCI-H322M lung): 19.3 µM | GI50 (NCI-H460 NSCLC): 1.51 µM | TGI (NCI-H460 NSCLC): 5.97 µM | GI50 (NCI-H522 lung): 1.83 µM | TGI (NCI-H522 lung): 3.63 µM | GI50 (NCI/ADR-RES ovarian): 85.7 µM | TGI (NCI/ADR-RES ovarian): > 100 µM | GI50 (OVCAR-3 ovarian): 4.45 µM | TGI (OVCAR-3 ovarian): 16.6 µM | GI50 (OVCAR-4 ovarian): 7.07 µM | TGI (OVCAR-4 ovarian): 19.7 µM | GI50 (OVCAR-5 ovarian): 3.14 µM | TGI (OVCAR-5 ovarian): 10.5 µM | GI50 (OVCAR-8 ovarian): 12.2 µM | TGI (OVCAR-8 ovarian): 24.7 µM | GI50 (PC-3 prostate): 9.06 µM | TGI (PC-3 prostate): 21 µM | GI50 (RPMI-8226 leukemia): 0.0774 µM | TGI (RPMI-8226 leukemia): 0.845 µM | GI50 (RXF 393 renal): 2.41 µM | TGI (RXF 393 renal): 6.19 µM | GI50 (SF-268 CNS): 1.99 µM | TGI (SF-268 CNS): 4.34 µM | GI50 (SF-295 CNS): 17.7 µM | TGI (SF-295 CNS): 31.6 µM | GI50 (SF-539 CNS): 1.92 µM | TGI (SF-539 CNS): 3.52 µM | GI50 (SK-MEL-2 melanoma): 1.85 µM | TGI (SK-MEL-2 melanoma): 3.26 µM | GI50 (SK-MEL-28 melanoma): 1.87 µM | TGI (SK-MEL-28 melanoma): 3.29 µM | GI50 (SK-MEL-5 melanoma): 1.67 µM | TGI (SK-MEL-5 melanoma): 3.66 µM | GI50 (SK-OV-3 ovarian): 2.36 µM | TGI (SK-OV-3 ovarian): 5.59 µM | GI50 (SN12C renal): 11.5 µM | TGI (SN12C renal): 23.7 µM | GI50 (SNB-19 CNS): 10.8 µM | TGI (SNB-19 CNS): 22.8 µM | GI50 (SR leukemia): 1.06 µM | TGI (SR leukemia): 2.25 µM | GI50 (SW-620 colon): 0.375 µM | TGI (SW-620 colon): 1.61 µM | GI50 (T-47D breast): 2.03 µM | TGI (T-47D breast): 5.32 µM | GI50 (TK-10 renal): 17.3 µM | TGI (TK-10 renal): 31.1 µM | GI50 (U251 glioblastoma): 1.83 µM | TGI (U251 glioblastoma): 3.36 µM | GI50 (UACC-257 melanoma): 1.77 µM | TGI (UACC-257 melanoma): 3.17 µM | GI50 (UACC-62 melanoma): 1.78 µM | TGI (UACC-62 melanoma): 3.18 µM | GI50 (UO-31 renal): 15.8 µM | TGI (UO-31 renal): 29.3 µM
